# Read-outs that look alike come from different tables or passages of the source.
# Biological target: T1, yeast alcohol dehydrogenase (Saccharomyces cerevisiae, UniProt P00330)
# T1 construct: gene ADH1
# T1 sequence (P00330 2-348): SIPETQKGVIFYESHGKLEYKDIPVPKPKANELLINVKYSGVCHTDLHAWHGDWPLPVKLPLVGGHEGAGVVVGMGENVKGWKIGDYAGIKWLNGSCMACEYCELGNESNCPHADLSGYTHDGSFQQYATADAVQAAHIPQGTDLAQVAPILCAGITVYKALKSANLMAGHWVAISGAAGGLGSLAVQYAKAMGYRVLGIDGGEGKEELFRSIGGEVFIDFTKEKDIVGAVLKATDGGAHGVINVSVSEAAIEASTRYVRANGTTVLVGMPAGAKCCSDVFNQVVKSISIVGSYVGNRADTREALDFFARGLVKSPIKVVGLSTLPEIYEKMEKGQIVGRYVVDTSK
# Experiment: NADH absorbance ([…] nm) enzyme assay of acetaldehyde reduction, 8-point dose response
# Assay type: biochemical
IC50 (read-out: IC50 yADH ^c),SMILES,IC50
–,"COc1cc(C)c(/C=C/[N+](=O)[O-])cc1C(C)C [compound 7279172, 7279172]",12.7 µM
–,"C#CCOc1c(Cl)cc(/C=C/[N+](=O)[O-])cc1OC [compound 7312219, 7312219]",3.8 µM
25.6 µM,"CC(=O)c1ccc(O)c2c1C1C=CCC1C(c1ccc(Cl)cc1)N2 (stereo not shown) [compound 7172827, 7172827]",–
–,"COc1ccc(/C=C/[N+](=O)[O-])cc1Br [compound 7241889, 7241889]",1.3 µM

# — article PMC3579935, “High-Throughput Screening for Growth Inhibitors Using a Yeast Model of Familial Paraganglioma” (PLoS ONE, 2013)
